The target of one experiment is PIK3CA (human) (UniProt P42336). Kind of experiment: Enzyme Assay.
For a further experiment, the target named is PIK3CG (human) (UniProt P48736). Kind of experiment: Inhibition of PIK3CG Kinase Activity.

pIC50: −log10 of the molar value.

Sequence of PIK3CA (human) (P42336 whole entry, looked up): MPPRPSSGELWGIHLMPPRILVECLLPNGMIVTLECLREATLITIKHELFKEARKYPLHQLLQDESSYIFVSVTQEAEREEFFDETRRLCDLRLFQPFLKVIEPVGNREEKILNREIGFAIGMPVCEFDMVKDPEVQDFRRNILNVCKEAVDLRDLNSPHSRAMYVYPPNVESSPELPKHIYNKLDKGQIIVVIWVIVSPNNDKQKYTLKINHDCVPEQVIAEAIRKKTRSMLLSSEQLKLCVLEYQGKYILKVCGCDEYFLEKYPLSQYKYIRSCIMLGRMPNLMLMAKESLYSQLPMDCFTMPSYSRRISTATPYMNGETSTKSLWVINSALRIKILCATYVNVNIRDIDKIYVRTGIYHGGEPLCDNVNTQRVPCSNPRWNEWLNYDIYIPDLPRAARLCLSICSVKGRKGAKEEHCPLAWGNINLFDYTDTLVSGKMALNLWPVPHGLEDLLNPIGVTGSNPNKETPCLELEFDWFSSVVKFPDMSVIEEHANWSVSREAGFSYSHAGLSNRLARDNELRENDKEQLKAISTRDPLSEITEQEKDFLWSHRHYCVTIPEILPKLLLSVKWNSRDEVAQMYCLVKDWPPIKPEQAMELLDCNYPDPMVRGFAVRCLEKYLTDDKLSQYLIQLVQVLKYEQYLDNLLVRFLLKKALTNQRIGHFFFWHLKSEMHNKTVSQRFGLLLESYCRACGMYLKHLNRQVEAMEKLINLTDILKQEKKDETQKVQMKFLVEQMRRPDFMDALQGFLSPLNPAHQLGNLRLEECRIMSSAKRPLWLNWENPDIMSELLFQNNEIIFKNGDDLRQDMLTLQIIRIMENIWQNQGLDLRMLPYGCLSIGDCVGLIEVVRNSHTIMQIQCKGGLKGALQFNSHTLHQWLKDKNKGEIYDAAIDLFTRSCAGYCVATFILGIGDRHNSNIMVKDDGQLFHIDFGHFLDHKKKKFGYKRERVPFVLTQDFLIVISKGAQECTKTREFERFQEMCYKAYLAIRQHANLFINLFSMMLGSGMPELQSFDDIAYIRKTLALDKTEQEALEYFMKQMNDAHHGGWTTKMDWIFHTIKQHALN
Sequence of PIK3CG (human) (P48736 whole entry, looked up): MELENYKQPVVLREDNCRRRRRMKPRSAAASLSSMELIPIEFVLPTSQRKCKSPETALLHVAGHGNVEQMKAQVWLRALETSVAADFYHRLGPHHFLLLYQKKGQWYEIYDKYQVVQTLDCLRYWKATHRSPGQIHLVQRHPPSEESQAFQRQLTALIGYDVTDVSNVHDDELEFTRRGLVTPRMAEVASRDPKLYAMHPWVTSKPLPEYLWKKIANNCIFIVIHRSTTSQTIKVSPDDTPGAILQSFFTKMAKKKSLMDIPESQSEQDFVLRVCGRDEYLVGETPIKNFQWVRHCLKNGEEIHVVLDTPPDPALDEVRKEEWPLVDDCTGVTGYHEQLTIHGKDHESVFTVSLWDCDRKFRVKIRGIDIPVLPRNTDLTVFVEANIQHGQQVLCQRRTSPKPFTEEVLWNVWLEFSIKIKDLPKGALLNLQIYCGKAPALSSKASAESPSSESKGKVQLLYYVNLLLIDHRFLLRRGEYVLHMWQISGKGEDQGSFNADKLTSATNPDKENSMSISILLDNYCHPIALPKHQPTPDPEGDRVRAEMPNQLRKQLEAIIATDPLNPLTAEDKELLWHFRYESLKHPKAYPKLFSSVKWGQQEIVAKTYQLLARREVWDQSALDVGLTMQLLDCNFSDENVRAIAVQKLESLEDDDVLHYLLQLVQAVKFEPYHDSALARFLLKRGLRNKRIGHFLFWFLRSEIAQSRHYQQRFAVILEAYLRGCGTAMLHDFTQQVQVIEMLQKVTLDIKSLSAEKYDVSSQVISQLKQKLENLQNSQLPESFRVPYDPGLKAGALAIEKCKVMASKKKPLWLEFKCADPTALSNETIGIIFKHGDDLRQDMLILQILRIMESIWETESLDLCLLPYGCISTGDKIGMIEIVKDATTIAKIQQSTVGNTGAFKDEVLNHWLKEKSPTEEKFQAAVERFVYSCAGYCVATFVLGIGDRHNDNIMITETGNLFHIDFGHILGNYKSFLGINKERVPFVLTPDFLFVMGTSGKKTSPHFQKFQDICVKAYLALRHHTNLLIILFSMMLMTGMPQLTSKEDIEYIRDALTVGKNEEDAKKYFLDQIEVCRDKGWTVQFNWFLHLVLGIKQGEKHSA

Usually pIC50 stands for the IC50 on a negative log10 scale, so that one unit is a factor of ten. High values mean a small IC50, low ones a large IC50. Consider `Cn1cc(/C=C2\Oc3ccc(NC(=O)NC4CC4)cc3C2=O)c2c(N3CC4CCC(C3)O4)ccnc21`, for which the values for the negative logarithm of the IC50 (pIC50) on PIK3CA (human) and against PIK3CG (human) were 6.54 and 5.67, respectively.
`Cn1cc(/C=C2\Oc3ccc(NC(=O)Nc4ccc(Cl)nc4)cc3C2=O)c2c(N3CC4CCC(C3)O4)ccnc21`: the figures for the negative logarithm of the IC50 (pIC50) against PIK3CA (human) and against PIK3CG (human) were 6.13 and 5.60, respectively.
Taken in the same sequence, the figures for `COc1ccc(-c2ccnc3c2c(/C=C2\Oc4cc(O)cc(O)c4C2=O)cn3C)cc1` were 7.28 and 6.80.
Taken in the same sequence, the figures for `Cn1cc(/C=C2\Oc3cc(O)cc(O)c3C2=O)c2c(-c3cncnc3)ccnc21` were 7.74 and 6.83.
With `Cn1cc(/C=C2\Oc3cccc(O)c3C2=O)c2c(-c3ccc(C(=O)N4CCOCC4)cc3)ccnc21`, the pIC50 is 7.31 at PIK3CA (human) and 7.27 against PIK3CG (human).
Regarding `Cn1cc(/C=C2\Oc3cccc(O)c3C2=O)c2c(-c3ccc[nH]3)ccnc21`, the pIC50 against PIK3CA (human) is 6.42; at PIK3CG (human) it was 5.68.
Taken in the same sequence, the figures for `CN(C)C(=O)CN(C)C(=O)C1CCN(c2ccnc3c2c(C=C2Oc4ccc(NC(=O)Nc5cccnc5)cc4C2=O)cn3C)CC1` were 5.37 and 5.17.
For `CN(C)S(=O)(=O)c1ccc(-c2ccnc3c2c(/C=C2\Oc4cccc(O)c4C2=O)cn3C)cc1` the same measures were 7.42 and 6.97.
For `Cn1cc(/C=C2\Oc3cccc(O)c3C2=O)c2c(-c3ccc(C4=NCCCO4)cc3)ccnc21` the same measures were 6.96 and 6.56.
As for `Cn1cc(/C=C2\Oc3cc(O)cc(O)c3C2=O)c2c(-c3ccc(OC(F)(F)F)cc3)ccnc21`, the results for the negative-log IC50 (pIC50) against PIK3CA (human) and against PIK3CG (human) were 6.74 and 6.86, respectively.

These data come from the Kinase Knowledgebase extract (Sharma et al. 2016).
